Read-outs that look alike come from different tables or passages of the source.
Assays:
[1] = Compound 2 solubility in solvents and buffers (saturated, 24 h shaking, HPLC); format: physicochemical; conditions: for solubility at 24 h: thermodynamic from solid
Method: Solubility of Compound 2 in a solvent, selected from water, methanol, acetonitrile (ACN) and iso-propanol and in 50 mM phosphate buffer at pH 1, 2, 7 and 8, 50 mM citrate buffer at pH 3, 4, 5 and 6 and in 50 mM borate buffer at pH 9 was assessed. Compound 2 was added to 10 mL of the solvent or buffer until the solution was visibly saturated and remained cloudy upon vortex mixing. Each sample was placed on a reciprocal shaker at room temperature for 24 hours then filtered through a 0.45 μm nylon filter to remove excess suspended compound. The samples were then diluted where required in accordance with Table 24, and analyzed by HPLC. The results were compared with a standard curve of known concentrations in ACN.

[2] = HPMC vs gelatin capsules of amorphous Compound 2: potency, purity, water uptake after 1 week; format: physicochemical
Method: Twenty capsules of both hydroxypropyl methylcellulose (HPMC, also known as Hypromellose) and gelatin were filled with 25±1 mg of amorphous Compound 2 to determine if the lower water content found in HPMC capsules would retard the water uptake of the compound. Samples of Compound 2 in both capsule types were placed at 25° C./60% RH and 40° C./75% RH for 1 week. The samples were analyzed for water content, potency, and % purity (% area) at t=0 and t=1 week.
20 transparent size 00 HPMC capsules and 20 transparent size 00 gelatin capsules were hand filled with API.
Each capsules was filled with 25±1 mg of API.
The two capsule types were both separated into two 30 cc HDPE bottles with caps and placed at both 25° C./60% RH and 40° C./75% RH for 1 week.
For the t=0 time point, Compound 2 was analyzed for water content, potency, and % purity (% area).
Two samples of Compound 2 were taken at t=0 for water content. The first sample was taken after the HPMC capsules had been filled and the second sample was taken after the gelatin capsules had been filled. This sampling procedure was done to offset the water uptake that took place while the capsules were being filled.
76.17 mg of Compound 2 was weighed directly into a 100-mL volumetric flask.
The flask was diluted to volume with ACN and inverted to mix.
A 1 mL aliquot was transferred directly into an HPLC vial for analysis.

[3] = Dissolution comparison of solid sodium salt forms in capsules; format: physicochemical
Method: Dissolution of three forms of solid sodium salt were analyzed, a monosodium trihydrate (Compound 6), a monosodium salt dihydrate (Compound 7) and amorphous Compound 2.
The crystalline material was made by exposing amorphous Compound 2 to ambient temperature/75% RH for 24 hrs. These conditions were created using a saturated sodium chloride solution sealed in a desiccant chamber. Once the crystalline material had been created it was collected and stored at 2-8° C. until dissolution testing took place. Two samples for dissolution were prepared by weighing 25 mg±1 mg into size 00 white opaque gelatin capsules.
Crystalline Compound 7 dihydrate was made by placing a sample of the iso-propanol solvate of Compound 2 at ambient temperature and humidity conditions for 2 weeks. The iso-propanol solvate of Compound 2 readily converts to the dihydrate. Once Compound 7 had been prepared, it was collected and stored at 2-8° C. until dissolution testing was conducted. Two samples for dissolution were prepared by weighing 25 mg±1 mg into size 00 white opaque gelatin capsules.
Two samples for dissolution were prepared by weighing 25 mg±1 mg of amorphous Compound 2 into size 00 white opaque gelatin capsules.
The dissolution materials and parameters are set out in Table 33. At each pull time ˜6 mL of media was removed from each vessel and filtered through a 0.45 μm nylon filter. The first 5 mL of solution was discarded and the final 1 mL was collected in a UPLC vial for analysis.

[4] = dog, in vivo, po, 10 mg/kg
Method: (§1) The study was designed to compare the PK profiles of the following four forms of Compound 1 administered as single oral capsules in fasted state. […] There was a washout period of 4 days between dosing. The blood samples were collected from each animal at predetermined times on the study Days 1, 4, 8 and 11. The plasma was analyzed for Compound 1 by a validated HPLC-MS/MS assay.
(§2) Descriptive PK parameters were determined by standard model independent methods (Gibaldi and Perrier, 1982) based on the individual plasma concentration-time data. Plasma concentrations were rounded to 3 significant figures. Plasma samples with concentrations below the quantifiable assay limit (BQL<2.00 ng/mL) were assigned values of zero for mean calculations. For PK calculations, BQL was set to zero from the pre-dose time up to the time of the first quantifiable concentration and thereafter was set as missing. Nominal time points were used for all calculations. • Cmax is the observed maximum plasma concentration after dosing. • Tmax is the time to reach Cmax. • T1/2 is apparent half-life calculated by ln(2)/λ where λ is the rate constant fix the log-linear portion of the terminal phase. A minimum of three values in the post-distribution phase of the plasma concentration-time curve is required for calculation of X. • AUC(0-T) is the area under the plasma concentration-time curve from time zero to the time of the last measurable plasma concentration determined using the linear trapezoidal rule. • AUC(0-inf) is the area under the plasma concentration-time curve from time zero to infinity. It is calculated by summing AUC(0-T) and the extrapolated area from the T to infinity.
(§3) PK analyses were performed by noncompartmental analysis using model 200 in WinNonlin Professional 6.1 (Pharsight Corp., Mountain View, Calif.).

[5] = Pharmacokinetics in male beagle dogs after a single oral dose (plasma Compound 1); conditions: dog, 10 mg/kg
Method: as §1, §2, §3

[6] = Gelatin Capsules, 25° C., t = 1 week
[7] = Gelatin Capsules, 40° C., t = 1 week
[8] = HPMC Capsules, 25° C., t = 1 week
[9] = HPMC Capsules, 40° C., t = 1 week
[10] = Table 42 summary, mean, dogs, single oral 10 mg/kg, plasma Compound 1
[11] = dog 301, single oral 10 mg/kg dose, plasma Compound 1
[12] = dog 302, single oral 10 mg/kg dose, plasma Compound 1
[13] = dog 303, single oral 10 mg/kg dose, plasma Compound 1
[14] = dog 304, single oral 10 mg/kg dose, plasma Compound 1
[15] = mean of dogs, single oral 10 mg/kg dose, plasma Compound 1

**Q.** Which solubility at 24 h ([1]; 50 mM borate buffer, aqueous buffer, pH 9 buffer (borate, 50 mM)) does the source give for COc1ccc2c(c1OCc1ccccc1)C[C@@H](C(=O)[O-])N(C(=O)C(c1ccccc1)c1ccccc1)C2.[Na+] [Compound 2, sodium salt of (S)-2-(diphenylacetyl)-1,2,3,4-tetrahydro-6-methoxy-5-(phenylmethoxy)-3-isoquinoline carboxylic acid] here?
**A.** 5300 µg/mL

**Q.** What about the solubility at 24 h ([1]; 50 mM citrate buffer, aqueous buffer, pH 4 buffer (citrate, 50 mM)) of the same compound?
**A.** < 1 µg/mL

**Q.** What about the solubility at 24 h ([1]; 50 mM citrate buffer, aqueous buffer, pH 5 buffer (citrate, 50 mM)) of the same compound?
**A.** 33 µg/mL

**Q.** What about the solubility at 24 h ([1]; 50 mM citrate buffer, aqueous buffer, pH 6 buffer (citrate, 50 mM)) of the same compound?
**A.** 900 µg/mL

**Q.** What about the solubility at 24 h ([1]; 50 mM phosphate buffer, aqueous buffer, pH 1 buffer (phosphate, 50 mM), room temperature 24 h) of the same compound?
**A.** < 1 µg/mL

**Q.** What about the solubility at 24 h ([1]; 50 mM phosphate buffer, aqueous buffer, pH 2 buffer (phosphate, 50 mM)) of the same compound?
**A.** < 1 µg/mL

**Q.** And the solubility at 24 h ([1]; 50 mM phosphate buffer, aqueous buffer, pH 7 buffer (phosphate, 50 mM))?
**A.** 1700 µg/mL

**Q.** And the solubility at 24 h ([1]; 50 mM phosphate buffer, aqueous buffer, pH 8 buffer (phosphate, 50 mM))?
**A.** 1600 µg/mL

**Q.** And the Solubility ([1]; Methanol)?
**A.** >50000 µg/mL

**Q.** And the solubility at 24 h ([1]; acetonitrile, organic solvent or mixture)?
**A.** 12000 µg/mL

**Q.** What about the solubility at 24 h ([1]; iso-propanol, organic solvent or mixture, IPA) of the same compound?
**A.** 700 µg/mL

**Q.** What about the solubility at 24 h ([1]; methanol, organic solvent or mixture) of the same compound?
**A.** > 50000 µg/mL

**Q.** And the solubility at 24 h ([1]; water)?
**A.** 14000 µg/mL

**Q.** And the “% Potency” value [2, 6]?
**A.** 90.1%

**Q.** And the “% a/a Purity” value [2, 6]?
**A.** 98.95 % a/a

**Q.** And the “Δ% a/a Purity” value [2, 6]?
**A.** 0.00 % a/a

**Q.** And the “% Potency” value [2, 7]?
**A.** 90.8%

**Q.** And the “% a/a Purity” value [2, 7]?
**A.** 98.88 % a/a

**Q.** What about the “Δ% a/a Purity” value [2, 7] of the same compound?
**A.** −0.07 % a/a

**Q.** What about the “% Potency” value [2, 8] of the same compound?
**A.** 90.2%

**Q.** And the “% a/a Purity” value [2, 8]?
**A.** 98.95 % a/a

**Q.** And the “Δ% a/a Purity” value [2, 8]?
**A.** 0.00 % a/a

**Q.** What about the “% Potency” value [2, 9] of the same compound?
**A.** 89.8%

**Q.** What about the “% a/a Purity” value [2, 9] of the same compound?
**A.** 98.74 % a/a

**Q.** And the “Δ% a/a Purity” value [2, 9]?
**A.** −0.21 % a/a

**Q.** What about the “% Potency” value ([2]; Sample t = 0) of the same compound?
**A.** 86.3%

**Q.** And the “% a/a Purity” value ([2]; Sample t = 0)?
**A.** 98.95 % a/a

**Q.** And the “potency and % purity (% area) after 1 week” value ([2]; all conditions tested (HPMC and gelatin capsules, 25° C./60% RH and 40° C./75% RH))?
**A.** unchanged

**Q.** And the “slowing of the uptake of water by HPMC capsules relative to gelatin” value ([2]; stored at 40° C./75% RH, 1 week)?
**A.** 3.74%

**Q.** What about the “% Dissolution” value ([3]; 15 mins, 25 mg in gelatin capsule, pH 6.8 phosphate buffer 900 mL, 37° C., 50 RPM) of the same compound?
**A.** 77.8%

**Q.** What about the “% Dissolution” value ([3]; 30 mins, pH 6.8 phosphate buffer, 50 RPM) of the same compound?
**A.** 83.6%

**Q.** And the “% Dissolution” value ([3]; 45 mins, pH 6.8 phosphate buffer, 50 RPM)?
**A.** 86.3%

**Q.** And the “% Dissolution” value ([3]; 60 mins, pH 6.8 phosphate buffer, 50 RPM)?
**A.** 88.8%

**Q.** And the “% Dissolution” value ([3]; 120 mins, pH 6.8 phosphate buffer, 150 RPM for 2nd hour)?
**A.** 92.9%

**Q.** What about the “dissolution rate (comparison of forms)” value ([3]; pH 6.8 phosphate buffer, capsules) of the same compound?
**A.** dissolved considerably faster

**Q.** What about the “Plasma concentration of Compound 1, 0.25 h” value [4] of the same compound?
**A.** BQL

**Q.** And the “Plasma concentration of Compound 1, 0.5 h” value [4]?
**A.** BQL

**Q.** And the “Plasma concentration of Compound 1, 24 h” value [4]?
**A.** BQL

**Q.** What about the “Plasma concentration of Compound 1, Predose” value [4] of the same compound?
**A.** BQL

**Q.** What about the “Plasma concentration of Compound 1, Predose” value ([4]; male, beagle) of the same compound?
**A.** 0.00 ng/mL

**Q.** And the AUC(0-t) [5, 10]?
**A.** 1840 ng·h/mL

**Q.** And the AUC(0-t) [5, 11]?
**A.** 1290 ng·h/mL

**Q.** And the AUC(0-t) [5, 12]?
**A.** 2350 ng·h/mL

**Q.** What about the AUC(0-t) [5, 13] of the same compound?
**A.** 1520 ng·h/mL

**Q.** What about the AUC(0-t) [5, 14] of the same compound?
**A.** 2180 ng·h/mL

**Q.** And the AUC(0-t) [5, 15]?
**A.** 1830 ng·h/mL

**Q.** And the AUC(0-inf) [5, 10]?
**A.** 1840 ng·h/mL

**Q.** What about the AUC(0-inf) [5, 11] of the same compound?
**A.** 1300 ng·h/mL

**Q.** What about the AUC(0-inf) [5, 12] of the same compound?
**A.** 2350 ng·h/mL

**Q.** What about the AUC(0-inf) [5, 13] of the same compound?
**A.** 1520 ng·h/mL

**Q.** And the AUC(0-inf) [5, 14]?
**A.** 2220 ng·h/mL

**Q.** And the AUC(0-inf) [5, 15]?
**A.** 1840 ng·h/mL

**Q.** What about the Cmax ([5]; Cmax, dog 301, single oral 10 mg/kg dose, plasma Compound 1) of the same compound?
**A.** 1110 ng/mL

**Q.** What about the Cmax ([5]; Cmax, dog 302, single oral 10 mg/kg dose, plasma Compound 1) of the same compound?
**A.** 1220 ng/mL

**Q.** And the Cmax ([5]; Cmax, dog 303, single oral 10 mg/kg dose, plasma Compound 1)?
**A.** 1750 ng/mL

**Q.** And the Cmax ([5]; Cmax, dog 304, single oral 10 mg/kg dose, plasma Compound 1)?
**A.** 2270 ng/mL

**Q.** What about the Cmax ([5]; Cmax, mean of dogs, single oral 10 mg/kg dose, plasma Compound 1) of the same compound?
**A.** 1590 ng/mL

**Q.** What about the half-life ([5]; Mean harmonic T1/2, male beagle dogs, single oral 10 mg/kg capsule, fasted, Compound 1 in plasma) of the same compound?
**A.** 2.49 ± 0.391 h

**Q.** And the half-life ([5]; T1/2, Table 42 summary, harmonic mean, dogs, single oral 10 mg/kg, plasma Compound 1)?
**A.** 2.49 h

**Q.** And the half-life ([5]; T1/2, dog 301, single oral 10 mg/kg dose, plasma Compound 1)?
**A.** 2.51 h

**Q.** And the half-life ([5]; T1/2, dog 302, single oral 10 mg/kg dose, plasma Compound 1)?
**A.** 2.73 h

**Q.** What about the half-life ([5]; T1/2, dog 303, single oral 10 mg/kg dose, plasma Compound 1) of the same compound?
**A.** 2.05 h

**Q.** And the half-life ([5]; T1/2, dog 304, single oral 10 mg/kg dose, plasma Compound 1)?
**A.** 2.81 h

**Q.** What about the half-life ([5]; T1/2, harmonic mean of dogs, single oral 10 mg/kg dose, plasma Compound 1) of the same compound?
**A.** 2.49 h

**Q.** And the Tmax ([5]; Tmax, Table 42 summary, median, dogs, single oral 10 mg/kg, plasma Compound 1)?
**A.** 0.75 h

**Q.** What about the Tmax ([5]; Tmax, dog 301, single oral 10 mg/kg dose, plasma Compound 1) of the same compound?
**A.** 0.75 h

**Q.** And the Tmax ([5]; Tmax, dog 302, single oral 10 mg/kg dose, plasma Compound 1)?
**A.** 1 h

**Q.** And the Tmax ([5]; Tmax, dog 303, single oral 10 mg/kg dose, plasma Compound 1)?
**A.** 0.75 h

**Q.** And the Tmax ([5]; Tmax, dog 304, single oral 10 mg/kg dose, plasma Compound 1)?
**A.** 0.5 h

**Q.** What about the Tmax ([5]; Tmax, median of dogs (Mean column), single oral 10 mg/kg dose, plasma Compound 1) of the same compound?
**A.** 0.75 h

**Q.** What about the Cmax ([5]; mean Cmax, male beagle dogs, single oral 10 mg/kg capsule, fasted, Compound 1 in plasma, mean±SD) of the same compound?
**A.** 1590 ± 534 ng/mL

**Q.** What about the Tmax ([5]; median Tmax, male beagle dogs, single oral 10 mg/kg capsule, fasted, Compound 1 in plasma) of the same compound?
**A.** 0.75 h

Source: patent US8614227B2, “Salt and solvates of a tetrahydroisoquinoline derivative” (Spinifex Pharmaceuticals Pty Ltd, priority 2010, dated 2013)
